Assay results: article PMC12040169 (PLOS Biology, 2025)

assay: in vitro; details: human, hela cells, % viability

| SMILES | viability at 28.5 h, 10 µM [%] |
| --- | --- |
| COC(=O)CCc1ccc(S(=O)(=O)N2CCCN(Cc3cc(Cl)cc(Cl)c3)CC2)cc1 [CBK062982] | 97.2 |
| CCNC(=S)N[C@H]1CC[C@@]2(Cc3ccccc3Cl)CCN(C)[C@H]2C1 [CBK003708] | 92 |
| OC(COc1ccc(F)cc1)CN1CCN(c2nc(-c3ccccc3)ns2)CC1 (stereo not drawn) [CBK074698] | 91.8 |
| Cc1ccc(CN(Cc2cnc(C)n2C)CC2CCCO2)o1 (stereo not drawn) [CBK283291] | 100 |
| O=C(/C=C/c1cccc([N+](=O)[O-])c1)NC(=S)Nc1ccc(-c2nc3ncccc3o2)cc1 [CBK264391] | 99.2 |
| O=C(Nc1ccc(O)cc1C(=O)O)c1ccc2c(c1)C(=O)N(Cc1ccco1)C2=O [CBK267418] | 103 |
| O=C(CSc1nnc(-c2ccccc2Br)o1)c1ccc(F)cc1 [CBK068688] | 92.2 |
| O=C(c1cccc(F)c1)N1CCCC1c1cc2cccnc2[nH]1 (stereo not drawn) [CBK285081] | 93.1 |
| CC(=O)Nc1cccc(-c2cncc(N[C@H](CO)C(C)C)n2)c1 [CBK065475] | 98.2 |
| CC(=O)N1C[C@H](c2cccc(C)c2)[C@H]2CN(C3CCCC3)CC[C@H]21 [CBK283369] | 88.7 |
| CCN1CCCCC1CNC(=O)Cn1nc(C)c(C)c1C (stereo not drawn) [CBK282208] | 105 |
| Cc1ccn(-c2ccc(N3CCOC4(CCCC4)C3)nn2)n1 [CBK305262] | 87.9 |
| OCC1CCN(Cc2ccc(OC3CCCC3)cc2)C1 (stereo not drawn) [CBK282929] | 99.5 |
| CCCN(CC1CCCO1)C(=O)c1cnn(-c2ccc(F)cc2)c1 (stereo not drawn) [CBK283317] | 89.7 |
| CSc1nc2ncnc(N3CCC(O)CC3)c2s1 [CBK022082] | 84.4 |
| Cc1ccc(Cl)cc1N(CC(=O)O)S(=O)(=O)c1ccccc1 [CBK262424] | 93 |
| COc1cc(C2C(C(=O)c3ccc(C)o3)=C(O)C(=O)N2Cc2cccnc2)cc(OC)c1OC (stereo not drawn) [CBK264933] | 110 |
| Cc1ccc(CNc2cc(C)ccn2)cc1 [CBK005419] | 106 |
| O=C(CSc1ncn(-c2ccccc2)n1)Nc1c(Cl)cccc1Cl [CBK269683] | 94.7 |
| CN(C)CCn1nc(-c2cccc(-n3cccc3)c2)oc1=O [CBK284002] | 94.2 |
| O=C(NCc1ccccc1)c1c(O)c2ccccc2n(Cc2ccccc2)c1=O [CBK291174] | 91.6 |
| CC1CCCCN1S(=O)(=O)c1ccc(NCCC(=O)c2ccc(Cl)cc2)cc1 (stereo not drawn) [CBK268529] | 113 |

| SMILES | viability at 28.5 h, 10 µM [%] |
| --- | --- |
| CC(NCC(O)COCc1ccc(Cl)cc1)c1ccccc1 (stereo not drawn) [CBK027972C] | 87.5 |
| OCC1CCCCC1NCCCC(c1ccc(F)cc1)c1ccc(F)cc1 (stereo not drawn) [CBK015830C] | 104 |
| CCCn1ccnc1SCC(=O)Nc1ccc(CN2CCOCC2)cc1 [CBK306068] | 87.8 |
| Cc1cccc(-c2noc(C)c2C(=O)NCCn2ccc(C)n2)c1 [CBK282656] | 96.4 |
| O=C(O)/C=C/c1cccc(-c2cn3ccnc3c(N3CCN(c4ccncc4)CC3)n2)c1 [CBK066326] | 94.8 |
| COC(=O)c1ccc(NS(=O)(=O)Cc2ccccc2)cc1 [CBK028699] | 91.4 |
| CC(C)[C@H](CO)n1c(=O)[nH]c2ncc(-c3ccco3)nc21 [CBK064479] | 86.7 |
| c1ccc(C(NCc2cnc(-c3ncccn3)s2)C2CCC2)cc1 (stereo not drawn) [CBK304013] | 81.5 |
| CC(=O)N[C@H]1CC[C@]2(C)CCC([C@H](C)C(=O)N3CCCCC3)[C@H](O)[C@H]2[C@@H]1C (stereo partly drawn) [CBK289439] | 89.4 |
| CCN1CCN(Cc2ccccc2[N+](=O)[O-])CC1 [CBK261561] | 109 |
| Cn1nc(-c2ccc(N3CCCCC3)c(NC(=O)COc3ccccc3)c2)c2ccccc2c1=O [CBK265780] | 97.3 |
| O=[N+]([O-])c1ccc(N2CCN(S(=O)(=O)c3ccccc3)CC2)cc1Sc1cccc2cccnc12 [CBK263821] | 100 |
| Cc1nc2c(Oc3ncccn3)cccn2c1N(C)C(=O)C1CCCCC1 [CBK147161] | 99.1 |
| CCOC(=O)c1cnn(C2CCCN(Cc3cncs3)C2)c1 (stereo not drawn) [CBK304039] | 94.7 |
| CC(=O)Nc1cccc(-c2nccnc2NS(=O)(=O)c2cccs2)c1 [CBK050760] | 92.7 |
| Cc1nn(C)c(C)c1CCC(=O)NCC(C)Oc1ccccc1F (stereo not drawn) [CBK305194] | 94.3 |
| COc1cc(NC(=O)NC(=O)C2CCN(C(C)=O)CC2)cc(OC)c1OC [CBK034831] | 114 |
| CC(C)c1cccc(N2CC(C(=O)Nc3cc(S(C)(=O)=O)ccc3F)CC2=O)c1 (stereo not drawn) [CBK296751] | 96.8 |
| C/C(=N\N1CCN(Cc2cccc3ccccc23)CC1)c1ccncc1 [CBK263574] | 98.9 |
| c1cncc(-c2cc(NCCc3ccncc3)ncn2)c1 [CBK037716] | 114 |
| CC(Oc1cccc(Cl)c1)C(=O)NCc1ccc(S(N)(=O)=O)cc1 (stereo not drawn) [CBK265477] | 97 |
| Cc1ccc2[nH]c3c(c2c1)CCOC31CCN(CCOc2cccc3c2CCCC3=O)CC1 [CBK040230] | 83.3 |

same assay, conditions: human, hela cells, % viability, bulk resorufin, single well

| SMILES | viability at 28.5 h, 10 µM [%] |
| --- | --- |
| COC(=O)c1ccc(N2C(=O)NC(=O)/C(=C\c3ccc(OCC(=O)O)cc3)C2=O)cc1 [CBK265407] | 85.2 |
